# Data published in a melting point compilation (Tetko et al.; mined from patent text by program, amines drawn as free bases though some values may be those of a salt).
row,SMILES,melting point [°C]
1,COc1cccc(C(=O)NN=C2C(=O)Nc3ccc(I)cc32)c1,287
2,CC(C)(C)c1cc(OCCCC#N)cc(C(C)(C)C)c1O,67 to 69
3,Cn1ncnc1COc1nn2c(-c3ccccc3F)nncc2c1Br,215 to 219
4,CC(C)N1C(=O)c2cncnc2Nc2ccccc21,204 to 206
5,O=C1NCC2(CCN(C(=O)OCc3ccccc3)CC2)O1,126 to 128
6,CCCn1c(=O)c2[nH]c(C3CCOCC3)nc2n(CCC)c1=O,171 to 172
7,CCCCCCCCCCCCCCCCCC1OCC(COC(O)CCCCC=O)O1 (stereo not given),53.6 to 55.7
8,CCC(=O)N1CCC(C(=O)O)CC1,91 to 94
9,O=Cc1ccc2c(c1)Sc1ccccc1C=C2,114 to 116
10,CCCCCCCCCCCCCCCCNc1ccc(C(=O)OCC(COC(C)=O)OC(C)=O)cc1 (stereo not given),68
11,O=C(Cc1cccc2ccccc12)NC1CCC2(O)C3Cc4ccc(O)c5c4C2(CCN3CC2CC2)C1O5 (stereo not given),213 to 215
12,CS(=O)(=O)N1CCC(c2nc3cc(-c4ccc(-n5cnnn5)cc4F)ccc3o2)CC1,209 to 212
13,Cc1nc2ccccn2c1Cc1ccc(C(=O)O)cc1,217
14,COc1ccc(C(=O)c2ccccc2)cc1OC1CCCC1,73.5 to 75
15,NC(=O)[C@@H]1C[C@]2(NC(=O)N(CCCN3CCC(O)CC3)C2=O)c2cc(F)ccc2O1,208 to 209
16,CNC(=O)Nc1cccc(C2=NC(C)(C)Cc3cc(OC)c4c(c32)CC(C)(C)O4)c1,125 to 127
17,O=C(O)c1ccc(CCc2n[nH]c3c2c(=O)n(-c2ccccc2)c2ncccc32)cc1,318 to 320
18,CCCCn1c(=O)c(NC(=O)Nc2cc(Cc3ncc[nH]3)ccc2C(C)(C)C)c(-c2cccc(O)c2)c2cccnc21,160 to 162
19,O=c1c(Nc2cccc(C(F)(F)F)c2)c(Nc2ccc(Br)cc2-c2nnn[nH]2)c1=O,150 to 165
20,CCC(CC)(CC)n1ncc(C(=O)NC)c1C#N,85 to 87
21,CNc1cc(N2CCc3ccccc32)cc(C)n1,174 to 175
22,CC(=O)C1=CC=C(C(C)(C)OO)C1,82 to 84
23,COc1ccc2c(c1)COc1ccc(OCc3ccc4ccc(Cl)cc4n3)cc1C2SCCC(=O)O (stereo not given),177 to 179
24,COc1ccc(-n2cnc(-c3cc(OC)c(OC)c(OC)c3)c2-c2ccc(OC)c(O)c2)cc1,65 to 67
25,Oc1ccc(Cl)cc1C(O)c1ccc(Cl)cc1 (stereo not given),106 to 107

row,SMILES,melting point [°C]
1,CC(=O)CCc1ccc(OCCCC(=O)O)cc1,97 to 99
2,CCCCN(C(C)=O)C1CC(C)(C)N(OC(=O)C(C)(C)C)C(C)(C)C1,81 to 94
3,O=C(Nc1cccc(Br)c1)NC1N=C(c2ccccc2F)c2ccccc2N(CC(=O)N2CC3CCC(CC3)C2)C1=O (racemic),173 to 186
4,Nc1ccc(NC2CCCCCC2)c([N+](=O)[O-])c1,153
5,CN(c1ccc2ccccc2c1)C(C(=O)O)c1c(Cl)cccc1Cl (stereo not given),144
6,O=C1C(Br)=CC2(C=C1Br)CCNC1=C2C2=NCCc3c[nH]c(c32)C1=O,> 360
7,Cc1ccc(-c2nc(Sc3ccc(Cl)cc3)cc(N3CCN(C)CC3)n2)cc1,104 to 105
8,CC(=O)Nc1ccc(OCC2CCN(CC(O)COc3cccc4c3CCN4C=O)CC2)cc1 (stereo not given),177 to 179
9,C#CC1(Oc2ccc(F)cc2[N+](=O)[O-])CCN(C(=O)Oc2ccccc2)CC1,82 to 83
10,CC1(O)CCC2(C)C(CCC3C2CCC2(C)C(c4cn5ccccc5n4)CCC32)C1 (stereo not given),225 to 226
11,COc1cncnc1OCc1ccc(C(C)(C)C)cc1,58 to 59
12,CCC(=O)NC[C@H]1CN(c2ccc(N3CCC(=CC#N)CC3)c(F)c2)C(=O)O1,200 to 202
13,O=C(NNS(=O)(=O)c1ccccc1)c1cnc2ccccc2c1,249 to 250
14,CNC(=O)C(Cc1ccc(OCCc2nc(-c3ccccc3)oc2C)cc1)C(=O)NC,217 to 219
15,CC(=O)NCC1CN(c2ccc(N3CCC(C)(O)C(C)(C)C3)c(F)c2)C(=O)O1 (stereo not given),114 to 116
16,CCCCCCCCCCCCNC(=O)CCNc1cccc(O)c1,< 40
17,CCCCCCc1cc2c(s1)-n1c(C)nnc1CN=C2c1ccccc1OC,128 to 130
18,CC(=O)C1CCC2C3CCC4CC(O)C(OCCC#N)CC4(C)C3C(=O)CC12C (stereo not given),194 to 196
19,CCn1ncc(C(=O)c2ccc(S(C)(=O)=O)c(-n3nc(C)cc3C)c2Cl)c1O,217 to 218
20,CC(=O)ON=C(c1ccc(OC(C)=O)cc1O)c1ccccc1F,132 to 134
21,CO[C@@H]1CN(c2ccc3c(=O)c(C=O)cn(-c4nccs4)c3n2)C[C@H]1NCC(=O)OC(C)(C)C (relative stereo),130 to 132
22,CCOC(=O)c1oc2c(-c3ccc(F)cc3)c(-c3ccc(S(C)(=O)=O)cc3)nn2c1C,203 to 204
23,CC(=O)N1CCN=C1Nc1cc(C)nn1-c1ccc(Cl)cc1C,195
24,Cc1nc2scc(C)n2c(=O)c1CCN1CCC(c2noc3cc(F)ccc23)CC1,231
25,O=C1c2cc([N+](=O)[O-])ccc2CCn2cccc21,190 to 192

row,SMILES,melting point [°C]
1,CC(=O)COc1ccc(C2CCCCC2)cc1,58
2,COc1ccc2c(c1)c(CC(=O)OCC(=O)O)c(C)n2C(=O)c1ccccc1F,172 to 173
3,N#Cc1cc2c(c(C(=O)O)c1)NCCCC2,175
4,CC(C)(N)COc1ccc(O)c(C(N)=O)c1,115 to 117
5,C#CCOc1cc(-c2nn(C)c(S(C)=O)c2C)c(F)cc1Cl (stereo not given),93 to 96
6,CCC[C@H]1CC[C@H](c2ncc(C(=O)OCC)c(O)n2)CC1,156 to 157
7,O=c1[nH]nc(-c2ccc(-n3ccnc3)cc2)c2ccccc12,310 to 311
8,COCCOc1ccc(OCC(O)CNCCOc2ccc(OC)cc2)c(C#N)c1 (stereo not given),95 to 97
9,Nc1ccc(NNC=O)cc1,122 to 125
10,CC(C)C1NC(=O)[C@H](CS)NC1=O (stereo not given in full),> 275
11,C1=Cc2ccccc2C(N2CCNCC2)c2ccccc21,139 to 141
12,O=C(Nc1nc(Cl)cc(Cl)n1)NS(=O)(=O)c1cccc2cccnc12,198 to 200
13,CCCCCc1ccc(C=Cc2cc3sc(C=Cc4ccc(CCCCC)cc4)cc3s2)cc1,320
14,CN(C)c1ccc(/C=C/c2nc3cc(Cl)ccc3s2)cc1,182 to 184
15,O=C(O)Cc1cccc(Oc2ccccc2Cl)c1[N+](=O)[O-],162 to 164
16,CC(=O)OC1C(N2CCCC2)CC2C3CCC4CC(O)C(N5CCOCC5)CC4(C)C3CCC21C (stereo not given),149 to 153
17,Cc1nc(C)c(CC(=O)O)c(-c2ccccc2)c1CC(=O)O,137 to 138
18,Nc1ccc(C(=O)c2ccccc2)c(F)c1,133 to 135
19,CCS(=O)c1ccc(-c2nc(-c3ccc(F)cc3)c(-c3ccncc3)[nH]2)cc1 (stereo not given),240
20,CCCCOCCOc1ccc(-c2ccc3c(c2)C=C(C(=O)Nc2ccc(SCc4n[nH]c(=O)n4CCC)cc2)CCN3CC(C)C)cc1,98 to 101
21,Clc1ccc(-c2ccnc(Nc3nc4ccccc4[nH]3)n2)cn1,308 to 311
22,Cn1ncc(-c2ccc3c(c2)c(C2CCN(CCN4CCNC4=O)CC2)cn3-c2ccc(F)cc2)n1,203 to 204
23,CCOC(=O)C(=O)C(C#N)c1ccc(Br)cc1 (stereo not given),146
24,CCCCc1cc(=O)c2ccccc2n1Cc1ccc(-c2ccccc2C(=O)O)cc1,> 260
25,CCCCCCCCCCCCCCCCNc1ccc(C(=O)OCCCO)cc1,67 to 69

row,SMILES,melting point [°C]
1,CC(=O)Oc1cc2ccccc2cc1C(N)=O,201 to 202
2,Cc1c[nH]c(=O)c2c3c([nH]c12)CCC(=O)C3,> 260
3,Cn1nc(-c2ccccc2)c(Sc2ccccc2)c1-c1ccccc1,109 to 110
4,COc1cc2c(cc1SC)CCN(C(C)=O)CC2,138 to 140
5,CC(C)(CCCCCCC(C)(C)CCC(=O)O)CCC(=O)O,88 to 89
6,CC(=O)C(C)N1C(=O)N(c2ccc(N3CCN(c4ccc(O)cc4)CC3)cc2)C(=O)C1(C)C (stereo not given),226
7,Cc1nc2cccc3c(=O)n(CCCCNS(=O)(=O)C(F)(F)F)c(=O)c1n23,181 to 182
8,Cc1cc2cc(CN3CCCC3)cnc2cc1NC(=O)c1ccc(-c2ccc(C(F)(F)F)cc2)cc1,216 to 219
9,Cc1c(N2CCN(C(=O)OC(C)(C)C)CC2)nn2c(-c3ccncc3)c(-c3ccc(F)cc3)nc2c1C,231 to 233
10,O=C(c1ccc2ccccc2c1)P1(=O)Oc2ccccc2-c2ccccc21 (stereo not given),151 to 153
11,N=C(Nc1ccc(CCN)cc1)c1cccs1,134 to 137
12,CN1C(=S)CSC=C1c1ccccc1,83 to 85
13,O=C1CCN(c2cc3c(cc2-c2ccc(F)cc2)NC(=O)CC(c2cccc(-n4ccnc4)c2)=N3)CC1,204
14,NC(=O)c1nccn1C1Cc2ccc(Cl)cc2C1=O (stereo not given),190
15,CC(C)C[C@H](NC(=O)C1CCCCC1)C(=O)N[C@@H](C(C)C)[C@@H](O)c1c(-c2ccccc2)c1=O,116 to 120
16,NNc1nc(F)c(CC(F)(F)F)cc1Cl,104 to 106
17,CCC(=O)NC[C@@H]1C[C@H]1c1c(F)ccc2nn(C)cc12 (relative stereo),158 to 159
18,CCOC(=O)OC1Oc2ccc(OS(C)(=O)=O)cc2C1(C)C (stereo not given),85 to 87
19,Cc1ccc(C(=O)NCCCSc2ccncc2)cc1,110 to 111
20,C=CCNCc1c(CO)nc2n1-c1ccc(Cl)cc1C(c1ccccc1F)=NC2,140
21,COC(=O)c1cc(-c2ccc(OCc3cccnc3)cc2O[C@H](CCC(=O)O)c2ccccc2C)n[nH]1,155 to 156
22,CN1C(=O)c2cccnc2Nc2cc([N+](=O)[O-])ccc21,275 to 278
23,O=[N+]([O-])c1cc(Cl)cnc1Oc1ccc(O)cc1,125 to 126
24,C=CCC(N)(c1ccccc1)C(O)c1ccccc1 (stereo not given),85 to 86
25,N#CC(=NOC(=O)OCc1ccccc1)c1ccccc1,73 to 75
